Structures can show the parent of a compound that is named as a salt.
Columns and labels:
Erwinia amylovora = test: Example 5 in vitro agar well inhibition of Erwinia amylovora; assay type: cell-based; details: LBA plates, 25° C., 72 hours; for bacterial inhibition zone (diameter): 1 cm center well
Method: Virgin Luria-Bertani agar (LBA) plates were inoculated in triplicate each with 1 mL of concentrated Erwinia amylovora suspension by aseptically spreading the bacteria uniformly onto the agar surfaces. A center well 1 cm in diameter was punched into the agar of each plate. Test products were added dropwise into each of these center wells until the liquid level just reached the agar surface (normally 5-7 drops were required). Plates were incubated at 25° C. for 72 hours then observed for evidence of bacterial growth inhibition.
Treatment List • 1. NEO-BOOST at 3.6 g/L. • 2. FireLine® [oxytetracycline hydrochloride 17% w/w] at 1.2 g/L • 3. FireWall® [streptomycin sulfate 17% w/w] at 0.6 g/L • 4. FireLine® at 1.2 g/L+FireWall® at 0.6 g/L • 5. NEO-BOOST at 3.6 g/L+FireLine® at 1.2 g/L • 6. NEO-BOOST at 3.6 g/L+FireWall® at 0.6 g/L • 7. NEO-BOOST at 3.6 g/L+FireLine® at 1.2 g/L+FireWall® at 0.6 g/L 8. Water.

[1] = Example 8 amount of peracetic acid in solution over time (NEO-PURE Liquid with/without Quadris); assay type: physicochemical; details: diluted NEO-PURE Liquid
Text: Another liquid organic formulation based on pre-formed peracetic acid, called NEO-PURE™ Liquid, was formulated to study its compatibility with single-site fungicides such as azoles and strobilurins.
The above formulation contains a minimum of 5% w/w active peracetic acid and 20% w/w hydrogen peroxide.

[2] = Example 4 HPLC compatibility: degradation of azoxystrobin by NEO-BOOST 18/18; assay type: physicochemical; details: NEO-BOOST 18/18 at 3.6 g/L combined with 0.5 g/L azoxystrobin as Quadris
Method: NEO-BOOST 18/18 at 3.6 g/L was combined with 0.5 g/L azoxystrobin in the form of Quadris®. In addition, several controls were prepared consisting of respectively: 0.5 g/L azoxystrobin in the form of Quadris®, and NEO-BOOST 18/18 at 3.6 g/L. All of the above were then converted or rendered into a form that could be analyzed by high-performance liquid chromatography (HPLC). The HPLC column was first calibrated with the reference standard azoxystrobin and then the samples were injected into the column at predetermined intervals to see whether the Quadris® was degraded at all by the NEO-BOOST 18/18.

SMILES	bacterial inhibition zone (diameter) (Erwinia amylovora)	depth of inhibition through the bacterial lawn to the agar surface (Erwinia amylovora)	decomposition of peracetic acid by the presence of azoxystrobin over time [1]	degradation of azoxystrobin by NEO-BOOST (HPLC) [2]
[H]/N=C(/N)N[C@H]1[C@H](O)[C@@H](O)[C@H](O[C@@H]2O[C@@H](C)[C@](O)(C=O)[C@H]2O[C@@H]2O[C@@H](CO)[C@H](O)[C@@H](O)[C@@H]2NC)[C@@H](N/C(N)=N\[H])[C@@H]1O [streptomycin, streptomycin sulfate]	about 3 cm	penetrated all the way down to the agar surface		
CO/C=C(/C(=O)OC)c1ccccc1Oc1cc(Oc2ccccc2C#N)ncn1 [azoxystrobin, methyl (E)-2-{2-[6-(2-cyanophenoxy)pyrimidin-4-yloxy]phenyl}-3-methoxyacrylate]			not decomposed	did not degrade azoxystrobin at all
CN(C)[C@@H]1C(=O)C(C(N)=O)=C(O)[C@@]2(O)C(=O)C3=C(O)c4c(O)cccc4[C@@](C)(O)[C@H]3[C@H](O)[C@@H]12.Cl [Oxytetracycline, oxytetracycline hydrochloride]	about 3 cm	penetrated all the way down to the agar surface		
